The nature of data set [1]: DL50 in the dog, intravenous administration. As to conditions: i.v.; for DL50: relative to vinburnine = 1,0 (arbitrary). In kind it is in vivo, chien. The text has this: Les propriétés pharmacologiques du citrate de vinburnine ont été utlisées en thérapie avec de bons résultats.
Data set [2] concerns circulation cérébrale (artère carotide interne). Nature of the data set: Cerebral circulation (internal carotid artery) and vascular resistance after intravenous and intra-arterial administration in dogs. In kind it is in vivo, chiens. The note with it: relative to vinburnine = 1,0 (arbitrary); for CERVEAU Diminution résistance vasculaire i.v. / CERVEAU augmentation circulation i.v.: 1 à 4 mg/kg, 4 mg/kg. The method, then:
D'autre part, on a réalisé une étude spr la pression sanguine et la circulation cérébrale en administrant des doses intraveineuses de 1 à 4 mg/kg d'animal.
Dans l'étude de l'effet de ce composé, on a enregistré et calculé la circulation cérébrale (artère carotide interne) et la résistance vasculaire lors de l'administration des composés par voie intraveineuse et intraartérielle chez des chiens. Les valeurs données dans le tableau suivant sont rapportés à la valeur de 1,0 donnée arbitrairement à la vinburnine.

The test system of data set [3] is consommation cérébrale du C14-desoxyglucose. Nature of the data set: Cerebral consumption of C14-labelled deoxyglucose in dogs (Fig. 1). In kind it is in vivo, chiens. The note with it: 1 à 4 Mg/kg, C14-deoxyglucose given orally, compared with untreated animal and with vinburnine (Fig. 1). The text has this: (§1) L'invention sera mieux comprise à la lecture du complément de description qui suit se référant aux dessins annexés dans lesquels: • - La Fig.l est une illustration graphique de l'augmentation de consommation cérébrale de desoxyglucose chez un animal traité avec le citrate de vinburnine • - La Fig.2, est une illustration graphique de l'augmentation de la dissociation de l'oxyhémoglobine chez un animal traité avec le citrate de vinburnine. Dans l'étude sur l'augmentation de la consommation du glucose, on a utilisé des doses de 1 à 4 Mg/kg de citrate de vinburnine chez des chiens auxquels on administre du deoxyglucose marqué au C14, par voie orale.
(§2) Cette différence observée dans l'importance de la dissociation de l'oxyhémoglobine par la vinburnine et le citrate de vinburnine est illustrée sur le graphique de la Fig.2.

In a further data set the test system is oxyhémoglobine. Nature of the data set: Dissociation of oxyhaemoglobin in anaesthetised dogs (Fig. 2). In kind it is in vivo, chiens. The note with it: 5mg/kg (Fig. 2).
Description: as §1, §2

A short description of a further data set: Solubility in water. In kind it is physicochemical. As to conditions: water / aqueous solution.

Where a name gives a salt, the structure may show the parent alone.

In the case of `CC[C@]12CCCN3CCc4c(n(c5ccccc45)C(=O)C1)[C@@H]32` [citrate de vinburnine, citrate de (-) vinburnine], the “valeurs de DL50” value in data set [1] (in words, compared with vinburnine base) is recorded as “sensiblement inférieures à celles correspondant à la vinburnine sous forme de base”. In data set [1], the DL50 was 1,2. For the same molecule, in data set [2], the “CERVEAU Diminution résistance vasculaire i.a.” value is recorded as 0,6, the “CERVEAU augmentation circulation i.a.” value is recorded as 0,8, the “CERVEAU Diminution résistance vasculaire i.v.” value was 0,8 and the “CERVEAU augmentation circulation i.v.” value is 0,9. For the same molecule, in data set [3], the “consommation cérébrale du C14-desoxyglucose” value is recorded as “consommation du glucose plus importante”. Besides, the “dissociation de l'oxyhémoglobine” value with oxyhémoglobine is recorded as “augmentation dans la dissociation de l'oxyhémoglobine”. Moreover, the “solubilité dans l'eau” value in the data set “Solubility in water” was “soluble en solution aqueuse”.

Regarding `CC[C@]12CCCN3CCc4c(n(c5ccccc45)C(=O)C1)[C@@H]32` [vinburnine], the DL50 in data set [1] was 1,0. In data set [2], the “CERVEAU Diminution résistance vasculaire i.a.” value is listed as 1,0, the “CERVEAU augmentation circulation i.a.” value is given as 1,0, the “CERVEAU Diminution résistance vasculaire i.v.” value is on record as 1,0 and the “CERVEAU augmentation circulation i.v.” value is reported as 1,0. Further, in data set [3], the “consommation cérébrale du C14-desoxyglucose” value is “augmentation de la consommation cérébrale du C14-desoxyglucose”. Besides, the “solubilité dans l'eau” value in the data set “Solubility in water” is “insoluble dans l'eau”.

Source of the values: patent EP0164478A2, “Citric-acid salt of (-)vinburnine and process for its preparation” (COVEX (S.A.), priority 1984, dated 1985).
